This is an account of results in patent US9120749B2, “Quinoline derivatives and MELK inhibitors containing the same” (ONCOTHERAPY SCIENCE, INC., priority 2010, dated 2015).

The target of the assay is MELK (Homo sapiens, UniProt Q14680). In words: Kinase assay: MELK activity, phosphorylation of FITC-labeled histone H3 peptide measured by IMAP fluorescence polarization. In kind it is biochemical. The settings on record: MELK kinase assay, IMAP fluorescence polarization, 50 micro-M ATP, read-out: IC50 (μM) (kinase assay). As to the method: MELK activity was determined in the presence or absence of compounds using fluorescein isothiocyanate-labeled (FITC-labeled) histone H3 peptide as a substrate. […] Test compounds were dissolved in DMSO at 12.5 mM and then serially diluted as the DMSO concentration in the assays to be 1%. […] The reaction was stopped by the addition of three fold assay volume of progressive binding solution. Following 0.5 hour incubation at room temperature, fluorescence polarization was measured by Wallac EnVision 2103 multilabel reader (PerkinElmer).
A general note: Fluorescence polarisation rises when a labelled molecule tumbles more slowly, as on binding a larger partner.

Structures can show the parent of a compound that is named as a salt. Where two headings read alike, the source gives them in different places.

MELK, sequence (Q14680 whole entry, looked up): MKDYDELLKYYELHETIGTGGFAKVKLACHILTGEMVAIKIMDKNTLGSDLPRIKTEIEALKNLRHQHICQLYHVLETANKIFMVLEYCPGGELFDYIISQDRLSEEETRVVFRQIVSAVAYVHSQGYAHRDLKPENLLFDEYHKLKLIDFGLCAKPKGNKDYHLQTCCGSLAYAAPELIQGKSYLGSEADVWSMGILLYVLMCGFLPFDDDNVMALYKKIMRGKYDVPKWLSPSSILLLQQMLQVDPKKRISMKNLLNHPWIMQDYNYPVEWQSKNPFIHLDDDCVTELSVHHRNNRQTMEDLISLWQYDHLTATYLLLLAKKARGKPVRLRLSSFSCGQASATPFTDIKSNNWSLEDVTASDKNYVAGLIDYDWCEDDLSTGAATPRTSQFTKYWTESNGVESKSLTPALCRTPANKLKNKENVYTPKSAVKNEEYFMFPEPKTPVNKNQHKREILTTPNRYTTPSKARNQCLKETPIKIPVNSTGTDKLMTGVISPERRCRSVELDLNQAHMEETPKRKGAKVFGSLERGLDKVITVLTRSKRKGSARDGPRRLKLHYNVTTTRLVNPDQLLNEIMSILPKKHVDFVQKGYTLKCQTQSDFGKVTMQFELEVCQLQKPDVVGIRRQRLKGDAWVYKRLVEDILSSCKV

With `CN(C)C[C@H]1CC[C@H](Nc2c(C(=O)C3CC3)cnc3ccc(-c4cc(Cl)c(O)c(Cl)c4)cc23)CC1` [Example 324, cyclopropyl(6-(3,5-dichloro-4-hydroxyphenyl)-4-(trans-4-((dimethylamino)methyl)cyclohexylamino)quinolin-3-yl)methanone], the IC50 is 0.00085 µM.

For `CC(=O)c1cnc2cc(C)c(-c3cc(F)c(O)c(Cl)c3)cc2c1Nc1ccc(CN(C)C)cc1` [Example 858, 1-(6-(3-chloro-5-fluoro-4-hydroxy-phenyl)-4-((4-((dimethylamino)methyl)phenyl)amino)-7-methylquinolin-3-yl)ethanone hydrochloride], the IC50 was determined as 0.2 µM.

Turning to `CC(=O)c1cnc2cc(C)c(-c3cc(Cl)c(O)c(Cl)c3)cc2c1N[C@H]1CC[C@H](CN(C)C)CC1` [Example 857], the IC50 was found to be 3.4 µM.

On to `CC(=O)c1cnc2ccc(-c3cc(Cl)c(O)c(Cl)c3)cc2c1N[C@H]1CC[C@H](CN(C)C)CC1` [Example 944, 1-{6-(3,5-Dichloro-4-hydroxyphenyl)-4-[trans-4-((dimethylamino)methyl)cyclohexylamino]quinolin-3-yl}ethanone hydrochloride], for which the 50% inhibitory concentration (IC50) (hydrochloride) was determined as 0.00094 µM.

Turning to `CC(=O)c1cnc2ccc(-c3cc(F)c(O)c(Cl)c3)cc2c1N[C@H]1CC[C@H](CN(C)C)CC1` [Example 378, 1-(6-(3-chloro-5-fluoro-4-hydroxyphenyl)-4-((trans)-4-((dimethylamino)methyl)cyclohexylamino)quinolin-3-yl) ethanone], the IC50 is 0.0061 µM.

Consider `CN(C)[C@H]1CC[C@H](Nc2c(C(=O)C3CC3)cnc3ccc(-c4cc(Cl)c(O)c(Cl)c4)cc23)CC1` [Example 941, cyclopropyl(6-(3,5-dichloro-4-hydroxyphenyl)-4-((1R,4R)-4-(dimethylamino)cyclohexylamino)quinolin-3-yl)methanone, dihydrobromide], for which the 50% inhibitory concentration (IC50) turned out to be 0.0016 µM.

Take `CC(C)C(=O)c1cnc2ccc(-c3cc(F)c(O)c(Cl)c3)cc2c1N[C@H]1CC[C@H](N)CC1` [Example 937, 1-(4-((1R,4R)-4-aminocyclohexylamino)-6-(3-chloro-5-fluoro-4-hydroxyphenyl)quinolin-3-yl)-2-methylpropan-1-one, dihydrochloride]: the IC50 was determined as 0.0054 µM.

For the compound `CC(=O)c1cnc2ccc(-c3ccncc3)cc2c1N[C@H]1CC[C@H](CN(C)C)CC1` [Example 908, 1-(4-((1R,4R)-4-((dimethylamino)methyl)cyclohexyl)amino)-6-(pyridin-4-yl)quinolin-3-yl)ethanone hydrochloride], the IC50 was determined as 0.23 µM.

For `CN(C)C[C@H]1CC[C@H](Nc2c(C(=O)C3CC3)cnc3cc(C(F)(F)F)c(-c4cc(F)c(O)c(Cl)c4)cc23)CC1` [Example 841], the IC50 worked out at 0.77 µM.

For `CC(=O)c1c(C)nc2ccc(-c3cc(F)c(O)c(Cl)c3)cc2c1Nc1ccc(N2CCN(C)CC2)nc1` [Example 837, 1-(6-(3-chloro-5-fluoro-4-hydroxy-phenyl)-2-methyl-4-(6-(4-methyl-piperazin-1-yl)pyridin-3-ylamino)quinolin-3-yl)ethanone hydrochloride], the IC50 is 0.54 µM.

In the case of `CC(=O)c1cnc2ccc(-c3cc(F)c(O)c(Cl)c3)cc2c1N[C@H]1CC[C@H](CN(C)C)CC1` [Example 943, 1-(6-(3-chloro-5-fluoro-4-hydroxyphenyl)-4-((trans-4-((dimethylamino)methyl)cyclohexyl)amino)quinolin-3-yl)ethanone dihydrochloride], for the setting “dihydrochloride”, the 50% inhibitory concentration (IC50) was found to be 0.004 µM.

Regarding `CC(=O)c1cnc2ccc(-c3cc(Cl)c(O)c(Cl)c3)cc2c1Nc1ccc(CN(C)C)cc1` [Example 942, 1-(6-(3,5-dichloro-4-hydroxyphenyl)-4-(4-((dimethylamino)methyl)phenylamino)quinolin-3-yl)ethanone], the IC50 amounted to 0.0022 µM.

In the case of `CC(=O)c1cnc2ccc(-c3ccc4nc[nH]c4c3)cc2c1Nc1ccc(N2CCC(N(C)C)C2)nc1` (stereo not shown) [Example 905, 1-(6-(1H-benzo[d]imidazol-6-yl)-4-((6-(3-(dimethylamino)pyrrolidin-1-yl)pyridin-3-yl)amino)quinolin-3-yl) ethanone hydrochloride], the IC50 was 0.11 µM.

The IC50 is the concentration needed to halve the response being measured.
